# Assays:
# [1] = model of multiple sclerosis; cited from earlier work
# [2] = rats; cited from earlier work
# [3] = rats; cited from earlier work; remark: listed apart in the source
# [4] = molecular target: T1, FAAH (solubilized liver plasma membrane extract) (Rattus norvegicus, UniProt P97612); assay: FAAH enzyme assay, hydrolysis of 14C-oleamide to oleic acid; type: biochemical; conditions: 14C-oleamide substrate, pH 9.0, 20-23° C., Dixon method
# T1 construct: using a solubilized liver plasma membrane extract containing FAAH; from tissue; host or cells: liver (plasma membrane extract, solubilized)
# T1 sequence (P97612 1-579): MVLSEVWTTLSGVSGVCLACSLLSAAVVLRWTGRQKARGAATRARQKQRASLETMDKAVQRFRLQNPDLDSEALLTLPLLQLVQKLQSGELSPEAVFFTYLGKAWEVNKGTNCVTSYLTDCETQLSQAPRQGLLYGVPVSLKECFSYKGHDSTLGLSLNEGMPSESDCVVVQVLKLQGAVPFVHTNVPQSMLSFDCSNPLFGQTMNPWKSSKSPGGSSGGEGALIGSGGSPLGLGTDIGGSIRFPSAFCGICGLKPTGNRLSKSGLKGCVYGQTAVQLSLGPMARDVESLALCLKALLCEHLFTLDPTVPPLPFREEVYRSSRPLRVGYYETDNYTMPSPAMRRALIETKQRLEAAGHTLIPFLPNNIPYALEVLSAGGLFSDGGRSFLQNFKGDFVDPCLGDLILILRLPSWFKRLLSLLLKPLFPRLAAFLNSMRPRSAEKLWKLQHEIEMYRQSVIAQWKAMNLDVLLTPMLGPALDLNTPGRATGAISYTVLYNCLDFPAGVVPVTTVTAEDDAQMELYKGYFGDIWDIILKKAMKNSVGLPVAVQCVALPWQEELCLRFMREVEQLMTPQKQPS
# Protocol: K; values were determined by the Dixon. Method (x-intercepts of weighted linear fits of [I] versus 1/rate plots at constant substrate concentration, which were converted to Ki values using the formula Ki=−xint/[1+[S]/Km]).
# [5] = rats; cited from earlier work; remark: listed apart in the source
# [6] = molecular target: T2, FAAH (Homo sapiens, UniProt O00519); conditions: cited from earlier work
# T2 sequence (O00519 1-579): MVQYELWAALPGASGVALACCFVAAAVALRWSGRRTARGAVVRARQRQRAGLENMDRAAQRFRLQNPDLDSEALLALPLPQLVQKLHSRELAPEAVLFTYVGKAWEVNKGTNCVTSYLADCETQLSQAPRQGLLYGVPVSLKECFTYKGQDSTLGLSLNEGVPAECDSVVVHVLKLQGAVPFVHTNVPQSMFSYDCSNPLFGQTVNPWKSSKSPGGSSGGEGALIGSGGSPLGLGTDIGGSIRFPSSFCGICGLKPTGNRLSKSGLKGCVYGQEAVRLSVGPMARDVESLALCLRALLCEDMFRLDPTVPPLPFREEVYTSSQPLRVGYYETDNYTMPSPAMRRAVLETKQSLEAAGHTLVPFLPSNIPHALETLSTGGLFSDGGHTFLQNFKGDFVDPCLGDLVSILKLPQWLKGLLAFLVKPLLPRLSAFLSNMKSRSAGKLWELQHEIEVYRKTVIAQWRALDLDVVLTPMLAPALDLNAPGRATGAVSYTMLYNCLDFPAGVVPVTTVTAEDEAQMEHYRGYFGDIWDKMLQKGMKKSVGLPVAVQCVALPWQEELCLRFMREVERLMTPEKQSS
# [7] = rats; cited from earlier work; remark: listed apart in the source
# [8] = rats; cited from earlier work; remark: listed apart in the source
# [9] = rat; cited from earlier work
smiles,measurement,setting,value
CCCCCCCCCCCCCCCCS(=O)(=O)F [AM374],effect on spasticity in CREAE mice,[1],significantly reduce spasticity
Cc1nc(-c2ccccc2)c(-c2ccccc2)n1CCCCCCNC(=O)Oc1ccccc1F [BMS-1],analgesic effect in Hargraves test,[2],analgesic effect
same,analgesic effect in Chung spinal nerve ligation model,[3],analgesic effect
"O=C(CCCCCCc1ccccc1)c1ncc(C(=O)N2CCOCC2)o1 [Example 4, 1-(5-(Morpholine-4-carbonyl)oxazol-2-yl)-7-phenylheptan-1-one]",Ki,[4],0.024 µM
"O=C(CCCCCCc1ccccc1)c1ncc(C(=O)N2CCCCC2)o1 [Example 5, 7-Phenyl-1-(5-(piperidine-1-carbonyl)oxazol-2-yl)heptan-1-one]",Ki,[4],0.008 µM
"O=C(CCCCCCc1ccccc1)c1ncc(C(=O)N2CCSCC2)o1 [Example 6, 7-Phenyl-1-(5-(thiomorpholine-4-carbonyl)oxazol-2-yl)heptan-1-one]",Ki,[4],0.01 µM
"CN1CCN(C(=O)c2cnc(C(=O)CCCCCCc3ccccc3)o2)CC1 [Example 7, 1-(5-(4-Methylpiperazine-1-carbonyl)oxazol-2-yl)-7-phenylheptan-1-one]",Ki,[4],0.08 µM
"CNC(=O)c1cnc(C(=O)CCCCCCc2ccccc2)o1 [Example 8, N-Methyl-2-(7-phenylheptanoyl)oxazole-5-carboxamide]",Ki,[4],0.007 µM
"O=C(CCCCCCc1ccccc1)c1ncc(S(=O)(=O)C(F)(F)F)o1 [Example 22, 7-Phenyl-1-(5-(trifluoromethylsulfonyl)oxazol-2-yl)heptan-1-one]",Ki,[4],> 0.002 µM
O=C(CCCCCCc1ccccc1)c1ncc(-c2ccccn2)o1 [OL-135],analgesic activity in tail emersion test,[5],analgesic activity
same,inhibition of FAAH,[6],potent inhibitor
same,analgesic efficacy in hot plate test,[7],analgesic activity
NC(=O)c1cccc(-c2cccc(OC(=O)NC3CCCCC3)c2)c1 [URB-597],efficacy in zero plus maze model of anxiety,[8],efficacy
same,analgesic efficacy in formalin test,[9],analgesic efficacy
same,analgesic efficacy in hot plate test,[7],analgesic efficacy

# Reference: patent US8268817B2, “Substituted oxazole ketone modulators of fatty acid amide hydrolase” (The Scripps Research Institute, priority 2006, dated 2012)
